Laboratory results: patent US20250197356A1, “METHOD FOR SYNTHESIZING NUCIFERINE OR DERIVATIVE THEREOF, DERIVATIVE OF NUCIFERINE AND USE THEREOF” (HUAQIAO UNIVERSITY, priority 2022, published 2025)
Like-named read-outs stand apart in the source and are kept apart here.

Key:
[1] = cited from earlier work
hyperlipidemia rats [2] = experiment: Liver and kidney indexes in high-fat diet hyperlipidemia rats; format: in vivo, SD rats; conditions: 20 mg/(kg d) by gastric gavage, 4 weeks, x ± s, n = 9
Text: (§1) Animals: 54 SPF-grade SD rats, weighing 120±10 g, provided by Laboratory Animal Business Department, Shanghai Family Planning Research Institute, China, Animal license number: SCXK(Shanghai)2018-0006.
(§2) Modeling scheme: 54 adult rats of 120±10 g were selected and fed adaptively for three days. They were then randomly divided to 6 groups, 9 animals for each group. They were blank control group, model group, positive control group, nuciferine group, and nuciferine structural modification group. The blank control group was fed with normal diet. […] The feeding and modeling time was 5 weeks.
(§3) Liver tissue sample collection: the rats were killed by dislocation, and the liver was taken out immediately after death, which was observed by naked eye to find out whether there was abnormal color and lesions, and was then rinsed with ice normal saline. The left lobe of the liver was quickly cut into small pieces and fixed in 10% formaldehyde overnight for sectioning. The tissue of the right lobe of the liver was quickly wrapped in tin box and stored at −80° C. for later use.

hyperlipidemia rats [3] = experiment: Serum biochemical indicators in high-fat diet hyperlipidemia rats; format: in vivo, SD rats; conditions: serum, 20 mg/(kg d) by gastric gavage, 4 weeks; for ALT (U/L) / AST (U/L) / Bun / Cr: x ± s, n = 9
Text: as §1
(§4) Drug to be tested: Nuciferine purchased from Shanghai Aladdin Biochemical Technology Co., Ltd., China, and its derivatives (purity >99%) that were synthesized in the laboratory by the methods of Examples 2-7.
(§5) Other reagents: AST, ALT, TC, TG, NEFA, Bun, Cr, CAT, GSH-Px, GSH, MDA test kits, purchased from Nanjing Jiancheng Bioengineering Institute, China; HL and PL test kits, purchased from Jianglai Biotechnology Co., Ltd., China; experimental reagents such as anhydrous ethanol, xylene, isopropanol neutral gum, purchased from Sinopharm Chemical Reagent Co., Ltd., China; HE dye solution, DAB color development agent, and oil red O dye solution, purchased from KeyGEN Biotechnology Co., Ltd, China; Antibodies IL-6 and TNF-α, purchased from Abcam Limited.
as §2, with “weeks. Within 4 weeks after modeling, continuous administration was performed: the blank control group and model group were given 0.2 mL of distilled water by gastric gavage; the positive control group was administrated 20 mg/(kg d) of simvastatin; while the treatment group was administrated 20 mg/(kg d) of nuciferine or 20 mg/(kg d) of a derivative of nuciferine (compounds 6a-6f).” for “weeks.”
Blood sample collection: 24 h after the last gastric gavage administration, eyeballs were taken out and blood was drawn. Whole blood was collected in an EP tube, and centrifuged at 3000 r/min and 4° C. for 10 min, and the supernatant was collected and stored at −20° C. for blood biochemical indicator test.
(§6) Biochemical indicator determination: indicators AST, ALT, TC, TG, NEFA, Bun, Cr, CAT, GSH-Px, GSH, MDA, HL, PL were determined according to the instructions of the kits.

hyperlipidemia rats [4] = experiment: Liver tissue homogenate biochemical indicators in high-fat diet hyperlipidemia rats; format: in vivo, SD rats; conditions: liver tissue, 20 mg/(kg d) by gastric gavage, 4 weeks, x ± s, n = 9
Text: as §1, §4, §5
as §2, with “weeks. Within 4 weeks after modeling, continuous administration was performed: the blank control group and model group were given 0.2 mL of distilled water by gastric gavage; the positive control group was administrated 20 mg/(kg d) of simvastatin; while the treatment group was administrated 20 mg/(kg d) of nuciferine or 20 mg/(kg d) of a derivative of nuciferine (compounds 6a-6f).” for “weeks.”
as §3
Preparation of 10% liver homogenate: the liver wrapped in tin box and stored in the ultra-low temperature freezer at −80° C. was taken out, and quickly placed on an ice box. 0.2 g of liver tissue was accurately taken, and ice normal saline with a volume 9 times that of the liver issue was added thereto. 10% tissue homogenate was formed by grounding and mixing, and then centrifuged at 3000 r/min and 4° C. for 10 min. The supernatant was collected for later use.
as §6

hyperlipidemia rats [5] = experiment: Liver appearance and HE histopathological observation in hyperlipidemia rats; format: in vivo, SD rats; conditions: compared with the model group, 20 mg/(kg d)
Text: as §1, §2, §3

[6] = TCMSP database, screening threshold OB ≥30%

| Compound | OB/% (oral bioavailability) [1, 6] | Kidney index (%) (hyperlipidemia rats [2]) | Liver index (%) (hyperlipidemia rats [2]) | LDL-C (hyperlipidemia rats [3]) | TC (hyperlipidemia rats [3]) | TG (hyperlipidemia rats [3]) | ALT (U/L) (hyperlipidemia rats [3]) | AST (U/L) (hyperlipidemia rats [3]) | Bun (hyperlipidemia rats [3]) | Cr (hyperlipidemia rats [3]) | CAT (U/mgprot) (hyperlipidemia rats [4]) | GSH (μmol/gprot) (hyperlipidemia rats [4]) | GSH-Px (U/mgprot) (hyperlipidemia rats [4]) | HL (U/mgprot) (hyperlipidemia rats [4]) | LPL (U/mgprot) (hyperlipidemia rats [4]) | MDA (nmol/mgprot) (hyperlipidemia rats [4]) | NEFA (μmol/g prot) (hyperlipidemia rats [4]) | TG (mmol/g prot) (hyperlipidemia rats [4]) | also measured |
| --- | --- | --- | --- | --- | --- | --- | --- | --- | --- | --- | --- | --- | --- | --- | --- | --- | --- | --- | --- |
| Oc1cc(O)c2c(c1)OC(c1ccc(O)c(O)c1)C(O)C2O (single isomer, unassigned; (+)) [(+)-Leucocyanidin] | 37.61% |  |  |  |  |  |  |  |  |  |  |  |  |  |  |  |  |  |  |
| CN1CCc2cc(O)c(O)cc2[C@@H]1Cc1ccc(O)cc1 [(1S)-1-(4-hydroxybenzyl)-2-methyl-3,4-dihydro-1H-isoquinoline-6,7-diol] | 67.14% |  |  |  |  |  |  |  |  |  |  |  |  |  |  |  |  |  |  |
| COc1cc2c(cc1OC)C(Cc1ccc(O)cc1)N(C)CC2 (stereo not drawn) [Armepavine] | 69.31% |  |  |  |  |  |  |  |  |  |  |  |  |  |  |  |  |  |  |
| COc1cc2c3c(c1OC)-c1ccccc1CC3N(C(=O)c1ccccc1)CC2 (stereo not drawn) [Compound 6a, Benzoylnuciferine] |  | 0.68 ± 0.04 % | 4.58 ± 0.29 % | 0.54 ± 0.09 mmol/L | 1.94 ± 0.18 mmol/L | 0.56 ± 0.05 mmol/L | 15.46 ± 8.79 U/L | 7.85 ± 2.23 U/L | 3.16 ± 0.17 mmol/L | 51.82 ± 7.06 µmol/L | 26.06 ± 2.69 U/mgprot | 360.02 ± 43.63 μmol/gprot | 550.96 ± 60.97 U/mgprot | 0.35 ± 0.03 U/mgprot | 0.27 ± 0.03 U/mgprot | 0.94 ± 0.27 nmol/mgprot | 107.69 ± 6.44 μmol/g prot | 0.10 ± 0.02 mmol/g prot | Liver appearance (photographs, FIG. 8) (hyperlipidemia rats [5]): more brittle |
| COc1cc2c3c(c1OC)-c1ccccc1CC3N(C(=O)c1ccc(C)cc1)CC2 (stereo not drawn) [Compound 6c, p-Methylbenzoylnuciferine] |  | 0.68 ± 0.03 % | 4.58 ± 0.26 % | 0.54 ± 0.08 mmol/L | 1.93 ± 0.16 mmol/L | 0.56 ± 0.07 mmol/L | 16.44 ± 8.69 U/L | 7.86 ± 2.24 U/L | 3.45 ± 0.51 mmol/L | 51.39 ± 5.83 µmol/L | 27.43 ± 3.14 U/mgprot | 374.63 ± 137.14 μmol/gprot | 567.63 ± 51.57 U/mgprot | 0.44 ± 0.78 U/mgprot | 0.50 ± 0.07 U/mgprot | 0.94 ± 0.38 nmol/mgprot | 107.69 ± 6.44 μmol/g prot | 0.10 ± 0.02 mmol/g prot |  |
| COc1cc2c3c(c1OC)-c1ccccc1CC3N(C(=O)c1ccccc1C)CC2 (stereo not drawn) [Compound 6d, o-Methylbenzoylnuciferine] |  | 0.68 ± 0.04 % | 4.58 ± 0.24 % | 0.68 ± 0.15 mmol/L | 2.03 ± 0.09 mmol/L | 0.57 ± 0.07 mmol/L | 15.62 ± 9.43 U/L | 7.78 ± 2.27 U/L | 3.56 ± 0.19 mmol/L | 53.82 ± 6.13 µmol/L | 25.78 ± 2.67 U/mgprot | 360.02 ± 43.63 μmol/gprot | 562.93 ± 68.91 U/mgprot | 0.37 ± 0.08 U/mgprot | 0.42 ± 0.06 U/mgprot | 0.95 ± 0.48 nmol/mgprot | 106.32 ± 22.95 μmol/g prot | 0.13 ± 0.02 mmol/g prot |  |
| COc1ccc(C(=O)N2CCc3cc(OC)c(OC)c4c3C2Cc2ccccc2-4)cc1 (stereo not drawn) [Compound 6e, p-Methoxybenzoylnuciferine] |  | 0.68 ± 0.05 % | 4.58 ± 0.27 % | 0.56 ± 0.08 mmol/L | 1.95 ± 0.13 mmol/L | 0.55 ± 0.05 mmol/L | 15.54 ± 8.69 U/L | 7.65 ± 2.26 U/L | 3.43 ± 0.27 mmol/L | 52.90 ± 2.21 µmol/L | 26.34 ± 4.54 U/mgprot | 363.09 ± 71.72 μmol/gprot | 537.18 ± 34.93 U/mgprot | 0.37 ± 0.07 U/mgprot | 0.28 ± 0.04 U/mgprot | 1.02 ± 0.73 nmol/mgprot | 107.69 ± 6.44 μmol/g prot | 0.10 ± 0.02 mmol/g prot |  |
| COc1cc2c3c(c1OC)-c1ccccc1CC3N(C(C)=O)CC2 (stereo not drawn) [Compound 6f, Acetylnuciferine] |  | 0.68 ± 0.03 % | 4.58 ± 0.25 % | 0.69 ± 0.16 mmol/L | 2.02 ± 0.16 mmol/L | 0.58 ± 0.07 mmol/L | 16.73 ± 9.74 U/L | 7.74 ± 2.22 U/L | 3.62 ± 0.15 mmol/L | 52.82 ± 4.36 µmol/L | 27.42 ± 2.82 U/mgprot | 361.04 ± 43.65 μmol/gprot | 560.90 ± 62.45 U/mgprot | 0.56 ± 0.06 U/mgprot | 0.26 ± 0.08 U/mgprot | 0.98 ± 0.56 nmol/mgprot | 106.32 ± 22.95 μmol/g prot | 0.13 ± 0.02 mmol/g prot |  |
| CC(C)=CCC[C@@H](C)[C@H]1CC[C@@]2(C)[C@@H]3CC[C@H]4C(C)(C)[C@@H](O)CC[C@@]45C[C@@]35CC[C@]12C [Cycloartenol] | 38.69% |  |  |  |  |  |  |  |  |  |  |  |  |  |  |  |  |  |  |
| COc1cc2c(cc1O)C(Cc1ccc(O)cc1)NCC2 (stereo not drawn) [Machiline] | 79.64% |  |  |  |  |  |  |  |  |  |  |  |  |  |  |  |  |  |  |
| CN1CCc2cc3c(c4c2C1Cc1ccccc1-4)OCO3 (stereo not drawn) [Remerin] | 40.75% |  |  |  |  |  |  |  |  |  |  |  |  |  |  |  |  |  |  |
| CCC(C)(C)C(=O)O[C@H]1C[C@@H](C)C=C2C=C[C@H](C)[C@H](CC[C@@H]3C[C@@H](O)CC(=O)O3)[C@H]21 [Simvastatin, simvastatin, reference compound] |  | 0.68 ± 0.03 % | 4.47 ± 0.36 % | 0.62 ± 0.17 mmol/L | 2.00 ± 0.19 mmol/L | 0.47 ± 0.05 mmol/L | 13.74 ± 4.06 U/L | 7.57 ± 1.78 U/L | 3.98 ± 0.43 mmol/L | 53.79 ± 7.58 µmol/L | 29.35 ± 7.00 U/mgprot | 341.36 ± 98.66 μmol/gprot | 708.02 ± 47.00 U/mgprot | 0.45 ± 0.11 U/mgprot | 0.50 ± 0.06 U/mgprot | 0.84 ± 0.19 nmol/mgprot | 103.22 ± 8.89 μmol/g prot | 0.09 ± 0.01 mmol/g prot |  |
| Oc1cc(O)c2c(c1)O[C@@H](c1ccc(O)c(O)c1)[C@@H](O)C2 [ent-Epicatechin] |  |  |  |  |  |  |  |  |  |  |  |  |  |  |  |  |  |  | OB/% (oral bioavailability) ([1]; po): 48.96% |
| COc1cc(-c2oc3cc(O)cc(O)c3c(=O)c2O)ccc1O [isorhamnetin] | 49.6% |  |  |  |  |  |  |  |  |  |  |  |  |  |  |  |  |  |  |
| Oc1cc(O)c2c(c1)O[C@@H](c1cc(O)c(O)c(O)c1)[C@@H](O)[C@@H]2O [leucodelphinidin] | 30.02% |  |  |  |  |  |  |  |  |  |  |  |  |  |  |  |  |  |  |
| (−)-catechin |  |  |  |  |  |  |  |  |  |  |  |  |  |  |  |  |  |  | OB/% (oral bioavailability) ([1]; po): 49.68% |
| o-Nornuciferine | 33.52% |  |  |  |  |  |  |  |  |  |  |  |  |  |  |  |  |  |  |
